The inhibition is the relative decrease from the control value, in per cent. What is called melting point is the temperature, or range, at which the solid turns liquid.

Bounds are passed on as bounds.

Consider eight molecules from patent US9512120B2, “Microbicidally active imidazopyridine derivatives” (Syngenta Participations AG, priority 2013, dated 2016).

The subject of one data set is Pythium ultimum. Description: Pythium ultimum / liquid culture (seedling damping off). To be noted: Globisporangium ultimum, potato dextrose broth, 24° C., 2-3 days after application, read-out: control of Pythium ultimum (inhibition of growth, photometric). It is filed as cell-based. On the procedure:
Pythium ultimum/Liquid Culture (Seedling Damping Off) Mycelia fragments and oospores of a newly grown liquid culture of the fungus were directly mixed into nutrient broth (potato dextrose broth). After placing a DMSO solution of test compound into a 96-well format microtiter plate at an application rate of 200 ppm, the nutrient broth containing the fungal mycelia/spore mixture was added. The test plates were incubated at 24° C. and the inhibition of growth was determined photometrically 2-3 days after application.

Data set [1] deals with Botryotinia fuckeliana (Botrytis cinerea). Description: Botryotinia fuckeliana (Botrytis cinerea) / liquid culture (gray mould). It is filed as cell-based. The note with it: Vogels broth, 24° C., 3-4 days after application, read-out: control of Botryotinia fuckeliana (inhibition of growth, photometric). In short, it runs like this:
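Botrytis cinerea conidia in Vogels broth were added to test compound applied from DMSO at 200 ppm. Incubation at 24 °C; growth inhibition read photometrically 3-4 days after application.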

For data set [2], the system named is Monographella nivalis (Microdochium nivale). In words: Monographella nivalis (Microdochium nivale) / liquid culture (foot rot cereals). Format: cell-based. To be noted: PDB, 24° C., 4-5 days after application, read-out: control of Monographella nivalis (inhibition of growth, photometric). Put shortly: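 Cryostored conidia in potato dextrose broth were added to test compound dispensed from DMSO at 200 ppm. Plates were kept at 24° C, and growth inhibition was read photometrically 4-5 days after application.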

The next data set concerns Pyrenophora teres. Description: Pyrenophora teres / barley / leaf disc preventative (net blotch). Format: in vivo. To be noted: foliar, barley leaf segments cv Hasso, inoculated two days after application, assessed 5-7 days after application, read-out: control of Pyrenophora teres (disease control compared to untreated). In short, it runs like this:
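Barley cv Hasso leaf segments on agar sprayed with compound at 200 ppm, inoculated with spores two days later. Kept at 20 °C, 65% RH, 12/12 h light; disease control versus untreated scored 5-7 days after application.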

For data set [3], the system named is Mycosphaerella arachidis (Cercospora arachidicola). Description: Mycosphaerella arachidis (Cercospora arachidicola) / liquid culture (early leaf spot). It is filed as cell-based. To be noted: PDB, 24° C., 4-5 days after application, read-out: control of Mycosphaerella arachidis (inhibition of growth, photometric). Put shortly:
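Conidia suspended in potato dextrose broth and added to test compound from DMSO solution at 200 ppm. Incubated at 24 °C; growth inhibition read photometrically 4-5 days after application.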

In a further data set the test system is Sclerotinia sclerotiorum. Description: Sclerotinia sclerotiorum liquid culture (cottony rot / white mold). The note with it: PDB, 24° C., 3-4 days after application, read-out: control of Sclerotinia sclerotiorum (inhibition of growth, photometric). Format: cell-based. Put shortly:
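Mycelia fragments of Sclerotinia sclerotiorum in potato dextrose broth were added to compound in DMSO. Cultures incubated at 24° C; growth inhibition determined photometrically 3-4 days after application.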

Data set [4] relates to Mycosphaerella graminicola (Septoria tritici). In words: Mycosphaerella graminicola (Septoria tritici) / liquid culture (Septoria blotch). It is filed as cell-based. To be noted: Zymoseptoria tritici, PDB, 24° C., 4-5 days after application, read-out: control of Mycosphaerella graminicola (inhibition of growth, photometric). Put shortly: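 Cryo-stored conidia in potato dextrose broth were added to compound in DMSO at 200 ppm in microtiter plates. Plates were incubated at 24 °C and growth inhibition was measured photometrically 4–5 days after application.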

Data set [5] relates to Thanatephorus cucumeris (Rhizoctonia solani). In words: Thanatephorus cucumeris (Rhizoctonia solani) / liquid culture (foot rot, damping-off). Format: cell-based. To be noted: PDB, 24° C., 3-4 days after application, read-out: control of Thanatephorus cucumeris (inhibition of growth, photometric). In short, it runs like this: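 Mycelial fragments in potato dextrose broth exposed to test compounds at 200 ppm (from DMSO solution), incubated at 24° C. Growth inhibition read photometrically 3-4 days after application.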

Data set [6] concerns Phaeosphaeria nodorum (Septoria nodorum). In words: Phaeosphaeria nodorum (Septoria nodorum) / wheat / leaf disc preventative (glume blotch). It is filed as in vivo. The note with it: Parastagonospora nodorum, foliar, wheat leaf segments cv Kanzler, inoculated 2 days after application, assessed 5-7 days after application, read-out: control of Phaeosphaeria nodorum (percent disease control compared to untreated). In short, it runs like this:
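Wheat leaf segments (cv Kanzler) on agar sprayed with compound at 200 ppm, inoculated with spores 2 days later. Incubated at 20° C., 75% relative humidity, 12/12 h light/dark; percent disease control versus untreated scored 5-7 days after application.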

Another data set has as its system Gaeumannomyces graminis. In words: Gaeumannomyces graminis / liquid culture (take-all of cereals). Format: cell-based. To be noted: PDB, 24° C., 4-5 days after application, read-out: control of Gaeumannomyces graminis (inhibition of growth, photometric). Put shortly:
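Mycelial fragments in potato dextrose broth were exposed to compound from DMSO at 200 ppm in microtiter plates. Incubation at 24 °C; growth inhibition read photometrically 4-5 days after application.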

Data set [7] has as its system Glomerella lagenarium (Colletotrichum lagenarium). In words: Glomerella lagenarium (Colletotrichum lagenarium) / liquid culture (anthracnose). Format: cell-based. To be noted: Colletotrichum orbiculare, PDB, 24° C., 3-4 days after application, read-out: control of Glomerella lagenarium (inhibition of growth, photometric). Put shortly: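 Cryopreserved conidia suspended in potato dextrose broth were added to compound in DMSO applied at 200 ppm. Plates incubated at 24° C; growth inhibition read photometrically 3-4 days after application.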

Data set [8] deals with Puccinia recondita f. sp. Tritici. In words: Puccinia recondita f. sp. tritici / wheat / leaf disc preventative (brown rust). Format: in vivo. The note with it: foliar, wheat leaf segments cv Kanzler, inoculated 1 day after application, assessed 7-9 days after application, read-out: control of Puccinia recondita f. sp. Tritici (percent disease control compared to untreated). Put shortly: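 Leaf segments of wheat cv Kanzler on agar were sprayed with formulated compound at 200 ppm and inoculated with spores 1 day later. Incubation was at 19° C, 75% relative humidity and 12/12 h light/dark. Activity was scored 7-9 days after application as percent disease control versus untreated.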

Data set [9] has as its system Blumeria graminis f. Sp. Tritici (Erysiphe graminis f. Sp. Tritici). In words: Blumeria graminis f. sp. tritici / wheat / leaf disc preventative (powdery mildew on wheat). Format: in vivo. The note with it: foliar, wheat leaf segments cv. Kanzler, inoculated 1 day after application, assessed 6-8 days after application, read-out: control of Blumeria graminis (percent disease control compared to untreated). Here is the method:
Blumeria graminis f. Sp. Tritici (Erysiphe graminis f. Sp. Tritici)/Wheat/Leaf Disc Preventative (Powdery Mildew on Wheat):
Wheat leaf segments cv. Kanzler were placed on agar in a 24-well plate and sprayed with the formulated test compound diluted in water at an application rate of 200 ppm. The leaf disks were inoculated by shaking powdery mildew infected plants above the test plates 1 day after application. The inoculated leaf disks were incubated at 20° C. and 60% relative humidity under a light regime of 24 h darkness followed by 12 h/12 h (dark/light) in a climate chamber and the activity of a compound was assessed as percent disease control compared to untreated when an appropriate level of disease damage appears on untreated check leaf segments (6-8 days after application). The following compounds gave at least 80% control of Blumeria graminis at 200 ppm when compared to untreated control leaf disks under the same conditions, which show extensive disease development: 2, 13, 23, 50, 59, 61, 67, 75, 85, 86, 89, 90, 93, 102, 103, 107, 134, 136, 137, 138, 139, 141, 145, 151, 153, 154, 163, 173, 174

For a further data set, the system named is Plasmopara viticola. Description: Plasmopara viticola / grape / leaf disc preventative. The note with it: foliar, grape vine leaf disks, inoculated 1 day after application, assessed 6-8 days after application, read-out: control of Plasmopara viticola (percent disease control compared to untreated). It is filed as in vivo.

In the case of `CCn1c(-n2ncnc2N)nc2cncc(-c3cc(F)ccc3F)c21` [Compound 39, 2-[7-(2,5-difluorophenyl)-1-ethylimidazo[4,5-c]pyridin-2-yl]-1,2,4-triazol-3-amine], the inhibition at 20 ppm (in the data set on Pythium ultimum; in data set [1]; in [2]; in data set [3]; in the data set on Sclerotinia sclerotiorum; in data set [4]) was ≥ 80% throughout. For the same molecule, the inhibition at 20 ppm (in data set [5]; in the data set with Gaeumannomyces graminis; in data set [7]) was ≥ 80% in each case. In addition, the pest or weed control at 200 ppm (with Pyrenophora teres; in [6]) was ≥ 80% each time.

As to `CCCc1cncc2nc(-n3ncnc3N)n(CC)c12` [Compound 73, 2-(1-ethyl-7-propylimidazo[4,5-c]pyridin-2-yl)-1,2,4-triazol-3-amine], the inhibition at 20 ppm (in the data set on Pythium ultimum; in data set [1]; in data set [2]; in data set [3]; in the data set on Sclerotinia sclerotiorum; in [4]) was ≥ 80% each time. Besides, the inhibition at 20 ppm (in data set [5]; in the data set with Gaeumannomyces graminis) was ≥ 80% throughout. Moreover, the pest or weed control at 200 ppm (in the data set with Pyrenophora teres; in data set [8]; in data set [6]) was ≥ 80% throughout.

Take `CCn1c(-n2ncnc2N)nc2cncc(-c3ccc(Cl)cc3Cl)c21` [Compound 38, 2-[7-(2,4-dichlorophenyl)-1-ethylimidazo[4,5-c]pyridin-2-yl]-1,2,4-triazol-3-amine]: the inhibition at 20 ppm (in the data set with Pythium ultimum; in data set [1]; in data set [2]; in data set [3]; in the data set on Sclerotinia sclerotiorum; in [4]) was ≥ 80% throughout. The inhibition at 20 ppm (in data set [5]; in the data set with Gaeumannomyces graminis; in [7]) was ≥ 80% throughout. For the same molecule, the pest or weed control at 200 ppm (in the data set on Pyrenophora teres; in data set [8]; in [6]) was ≥ 80% in each case.

`CCn1c(-n2ncnc2N)nc2cncc(C(C)=NOCc3ccccc3F)c21` [Compound 137] returned a melting point of 159 to 171 °C. For the same molecule, in data set [1], the inhibition at 20 ppm is ≥ 80%. Moreover, the pest or weed control at 200 ppm in data set [9] is ≥ 80%. The inhibition at 20 ppm in [2] is ≥ 80%. Also, in the data set with Pyrenophora teres, the pest or weed control at 200 ppm is ≥ 80%. The inhibition at 20 ppm with Sclerotinia sclerotiorum is ≥ 80%. The inhibition at 20 ppm in data set [4] is ≥ 80%. In addition, the inhibition at 20 ppm in data set [5] is ≥ 80%. The pest or weed control at 200 ppm in the data set on Plasmopara viticola is ≥ 80%. Moreover, the pest or weed control at 200 ppm in [8] was ≥ 80%. The pest or weed control at 200 ppm in [6] is ≥ 80%. Further, the inhibition at 20 ppm with Gaeumannomyces graminis was ≥ 80%. The inhibition at 20 ppm in data set [7] is ≥ 80%.

`CCCc1cncc2nc(-n3ncnc3N)n(CCC)c12` [Compound 190, 2-(1,7-dipropylimidazo[4,5-c]pyridin-2-yl)-1,2,4-triazol-3-amine]: the inhibition at 20 ppm (in the data set on Pythium ultimum; in data set [1]; in [2]; with Sclerotinia sclerotiorum; in [4]; in data set [5]) was ≥ 80% each time. Further, the inhibition at 20 ppm with Gaeumannomyces graminis is ≥ 80%. Besides, the pest or weed control at 200 ppm (in the data set with Pyrenophora teres; in [8]; in data set [6]) was ≥ 80% throughout.

As for `CCn1c(-n2ncnc2N)nc2cncc(-c3ccoc3)c21` [Compound 55, 2-[1-ethyl-7-(furan-3-yl)imidazo[4,5-c]pyridin-2-yl]-1,2,4-triazol-3-amine], the inhibition at 20 ppm (in the data set with Pythium ultimum; in [1]; in data set [2]; in [3]; in data set [4]; in [5]) was ≥ 80% in each case. Also, the inhibition at 20 ppm (with Gaeumannomyces graminis; in [7]) was ≥ 80% each time. The pest or weed control at 200 ppm (in the data set with Pyrenophora teres; in [8]; in data set [6]) was ≥ 80% in each case.

In the case of `CCn1c(-n2ncnc2N)nc2cncc(-c3ccccc3Cl)c21` [Compound 33, 2-[7-(2-chlorophenyl)-1-ethylimidazo[4,5-c]pyridin-2-yl]-1,2,4-triazol-3-amine], the inhibition at 20 ppm (with Pythium ultimum; in data set [1]; in data set [2]; in data set [3]; in the data set with Sclerotinia sclerotiorum; in data set [4]) was ≥ 80% throughout. Moreover, the inhibition at 20 ppm in [5] and in [7] was ≥ 80% throughout. Moreover, the pest or weed control at 200 ppm (in the data set on Pyrenophora teres; in [8]; in data set [6]) was ≥ 80% in each case.

In the case of `CCn1c(-n2ncnc2N)nc2cncc(-c3ccc(F)cc3F)c21` [Compound 80, 2-[7-(2,4-difluorophenyl)-1-ethylimidazo[4,5-c]pyridin-2-yl]-1,2,4-triazol-3-amine], the inhibition at 20 ppm (in the data set with Pythium ultimum; in data set [1]; in [2]; in data set [3]; in the data set on Sclerotinia sclerotiorum; in data set [4]) was ≥ 80% throughout. In addition, the inhibition at 20 ppm (in data set [5]; in the data set on Gaeumannomyces graminis; in [7]) was ≥ 80% in each case. Further, the pest or weed control at 200 ppm (in the data set on Pyrenophora teres; in [8]; in [6]) was ≥ 80% each time.
